Test results from US11154060B2, “Microbiocidal oxadiazole derivatives” (SYNGENTA PARTICIPATIONS AG, priority 2016, dated 2021).

How the values were obtained:
[1] = system: Puccinia recondita f. sp. tritici; test: Puccinia recondita f. sp. tritici / wheat / leaf disc preventative (brown rust); assay type: in vivo; conditions: foliar, wheat leaf segments cv. Kanzler, inoculated 1 day after application, assessed 7-9 days after application, read-out: control of Puccinia recondita f. sp. tritici compared to untreated control
Experimental: Leaf disks or leaf segments of various plant species are cut from plants grown in a greenhouse. The cut leaf disks or segments are placed in multiwell plates (24-well format) onto water agar. The leaf disks are sprayed with a test solution before (preventative) or after (curative) inoculation. Compounds to be tested are prepared as DMSO solutions (max. 10 mg/ml) which are diluted to the appropriate concentration with 0.025% Tween20 just before spraying. The inoculated leaf disks or segments are incubated under defined conditions (temperature, relative humidity, light, etc.) according to the respective test system. A single evaluation of disease level is carried out 3 to 14 days after inoculation, depending on the pathosystem. Percent disease control relative to the untreated check leaf disks or segments is then calculated. Wheat leaf segments cv. Kanzler are placed on agar in multiwell plates (24-well format) and sprayed with the formulated test compound diluted in water. The leaf disks are inoculated with a spore suspension of the fungus 1 day after application. The inoculated leaf segments are incubated at 19° C. and 75% rh under a light regime of 12 h light/12 h darkness in a climate cabinet and the activity of a compound is assessed as percent disease control compared to untreated when an appropriate level of disease damage appears in untreated check leaf segments (7-9 days after application).

[2] = system: Puccinia recondita f. sp. tritici; test: Puccinia recondita f. sp. tritici / wheat / leaf disc curative (brown rust); assay type: in vivo; conditions: foliar, wheat leaf segments cv. Kanzler, applied 1 day after inoculation, assessed 6-8 days after application, read-out: control of Puccinia recondita f. sp. tritici compared to untreated control
Experimental: Leaf disks or leaf segments of various plant species are cut from plants grown in a greenhouse. The cut leaf disks or segments are placed in multiwell plates (24-well format) onto water agar. The leaf disks are sprayed with a test solution before (preventative) or after (curative) inoculation. Compounds to be tested are prepared as DMSO solutions (max. 10 mg/ml) which are diluted to the appropriate concentration with 0.025% Tween20 just before spraying. The inoculated leaf disks or segments are incubated under defined conditions (temperature, relative humidity, light, etc.) according to the respective test system. A single evaluation of disease level is carried out 3 to 14 days after inoculation, depending on the pathosystem. Percent disease control relative to the untreated check leaf disks or segments is then calculated. Wheat leaf segments cv. Kanzler are placed on agar in multiwell plates (24-well format). The leaf segments are inoculated with a spore suspension of the fungus. Plates are stored in darkness at 19° C. and 75% rh. The formulated test compound diluted in water is applied 1 day after inoculation. The leaf segments are incubated at 19° C. and 75% rh under a light regime of 12 h light/12 h darkness in a climate cabinet and the activity of a compound is assessed as percent disease control compared to untreated when an appropriate level of disease damage appears in untreated check leaf segments (6-8 days after application).

Phakopsora pachyrhizi = Phakopsora pachyrhizi / soybean / leaf disc preventative (Asian soybean rust); assay type: in vivo; conditions: foliar, soybean leaf disks, inoculated one day after application, assessed 12-14 days after application, read-out: control of Phakopsora pachyrhizi compared to untreated control
Experimental: Leaf disks or leaf segments of various plant species are cut from plants grown in a greenhouse. The cut leaf disks or segments are placed in multiwell plates (24-well format) onto water agar. The leaf disks are sprayed with a test solution before (preventative) or after (curative) inoculation. Compounds to be tested are prepared as DMSO solutions (max. 10 mg/ml) which are diluted to the appropriate concentration with 0.025% Tween20 just before spraying. The inoculated leaf disks or segments are incubated under defined conditions (temperature, relative humidity, light, etc.) according to the respective test system. A single evaluation of disease level is carried out 3 to 14 days after inoculation, depending on the pathosystem. Percent disease control relative to the untreated check leaf disks or segments is then calculated. Soybean leaf disks are placed on water agar in multiwell plates (24-well format) and sprayed with the formulated test compound diluted in water. One day after application leaf discs are inoculated by spraying a spore suspension on the lower leaf surface. After an incubation period in a climate cabinet of 24-36 hours in darkness at 20° C. and 75% rh leaf disc are kept at 20° C. with 12 h light/12 h darkness and 75% rh. The activity of a compound is assessed as percent disease control compared to untreated when an appropriate level of disease damage appears in untreated check leaf disks (12-14 days after application).

[3] = system: Glomerella lagenarium (Colletotrichum lagenarium); test: Glomerella lagenarium (Colletotrichum lagenarium) liquid culture / cucumber / preventative (anthracnose); assay type: cell-based; conditions: Colletotrichum orbiculare, liquid culture in PDB, 24° C., 3-4 days after application, read-out: control of Glomerella lagenarium compared to untreated control (inhibition of growth, photometric)
Experimental: Mycelia fragments or conidia suspensions of a fungus prepared either freshly from liquid cultures of the fungus or from cryogenic storage, are directly mixed into nutrient broth. DMSO solutions of the test compound (max. 10 mg/ml) are diluted with 0.025% Tween20 by a factor of 50 and 10 μl of this solution is pipetted into a microtiter plate (96-well format). The nutrient broth containing the fungal spores/mycelia fragments is then added to give an end concentration of the tested compound. The test plates are incubated in the dark at 24° C. and 96% relative humidity. The inhibition of fungal growth is determined photometrically after 2 to 7 days, depending on the pathosystem, and percent antifungal activity relative to the untreated check is calculated. Conidia of the fungus from cryogenic storage are directly mixed into nutrient broth (PDB potato dextrose broth). After placing a (DMSO) solution of test compound into a microtiter plate (96-well format), the nutrient broth containing the fungal spores is added. The test plates are incubated at 24° C. and the inhibition of growth is measured photometrically 3-4 days after application.

Uromyces viciae-fabae = Uromyces viciae-fabae / field bean / leaf disc preventative (faba-bean rust); assay type: in vivo; conditions: foliar, 288 h, 100 ppm in the applied formulation, field bean leaf discs, inoculated two hours after application, 12 days after application, read-out: disease control compared to untreated control leaf discs
Experimental: Leaf disks or leaf segments of various plant species are cut from plants grown in a greenhouse. The cut leaf disks or segments are placed in multiwell plates (24-well format) onto water agar. The leaf disks are sprayed with a test solution before (preventative) or after (curative) inoculation. Compounds to be tested are prepared as DMSO solutions (max. 10 mg/ml) which are diluted to the appropriate concentration with 0.025% Tween20 just before spraying. The inoculated leaf disks or segments are incubated under defined conditions (temperature, relative humidity, light, etc.) according to the respective test system. A single evaluation of disease level is carried out 3 to 14 days after inoculation, depending on the pathosystem. Percent disease control relative to the untreated check leaf disks or segments is then calculated. Field bean leaf discs are placed on water agar in multiwell plates (96-well format) and 10 μl of the formulated test compound diluted in acetone and a spreader pipetted onto the leaf disc. Two hours after application leaf discs are inoculated by spraying a spore suspension on the lower leaf surface. The leaf discs are incubated in a climate cabinet at 22° C. with 18 hour day and 70% relative humidity. The activity of a compound is assessed as percent disease control compared to untreated when an appropriate level of disease damage appears in untreated check leaf disks (12 days after application).

Row | Compound | pest or weed control at 200 ppm [1] [%] | pest or weed control at 200 ppm [2] [%] | pest or weed control at 200 ppm (Phakopsora pachyrhizi) [%] | inhibition at 20 ppm [3] [%] | pest or weed control at 100 ppm (Uromyces viciae-fabae) [%] | melting point [°C]
1 | CON(Cc1ccco1)C(=O)c1ccc(-c2noc(C(F)(F)F)n2)cc1F [Compound 1.7, 2-fluoro-N-(2-furylmethyl)-N-methoxy-4-[5-(trifluoromethyl)-1,2,4-oxadiazol-3-yl]benzamide] | ≥ 80 | ≥ 80 | ≥ 80 | ≥ 80 | ≥ 80 | –
2 | C#CCN(OC)C(=O)c1ccc(-c2noc(C(F)(F)F)n2)cc1F [Compound 1.10, 2-fluoro-N-methoxy-N-prop-2-ynyl-4-[5-(trifluoromethyl)-1,2,4-oxadiazol-3-yl]benzamide] | ≥ 80 | ≥ 80 | ≥ 80 | ≥ 80 | ≥ 80 | –
3 | C=CCN(OC)C(=O)c1ccc(-c2noc(C(F)(F)F)n2)cc1 [Compound 2.10, N-allyl-N-methoxy-4-[5-(trifluoromethyl)-1,2,4-oxadiazol-3-yl]benzamide] | ≥ 80 | ≥ 80 | ≥ 80 | ≥ 80 | ≥ 80 | –
4 | COC(=O)CN(OC)C(=O)c1ccc(-c2noc(C(F)(F)F)n2)cc1 [Compound 2.8, methyl 2-[methoxy-[4-[5-(trifluoromethyl)-1,2,4-oxadiazol-3-yl]benzoyl]amino]acetate] | ≥ 80 | ≥ 80 | ≥ 80 | ≥ 80 | ≥ 80 | –
5 | CCONC(=O)c1ccc(-c2noc(C(F)(F)F)n2)c(F)c1 [Compound 1.13, N-ethoxy-3-fluoro-4-[5-(trifluoromethyl)-1,2,4-oxadiazol-3-yl]benzamide] | ≥ 80 | – | – | ≥ 80 | – | 139 to 144
6 | CON(Cc1ccccc1)C(=O)c1ccc(-c2noc(C(F)(F)F)n2)cc1 [Compound 2.5, N-benzyl-N-methoxy-4-[5-(trifluoromethyl)-1,2,4-oxadiazol-3-yl]benzamide] | ≥ 80 | ≥ 80 | ≥ 80 | ≥ 80 | ≥ 80 | –
7 | O=C(NO)c1ccc(-c2noc(C(F)(F)F)n2)cc1 [Compound 2.4, 4-[5-(trifluoromethyl)-1,2,4-oxadiazol-3-yl]benzenecarbohydroxamic acid] | ≥ 80 | ≥ 80 | ≥ 80 | ≥ 80 | ≥ 80 | –
8 | O=C(Cc1ccc(-c2noc(C(F)(F)F)n2)cc1)NOCc1ccccc1 [Compound 2.15, N-benzyloxy-2-[4-[5-(trifluoromethyl)-1,2,4-oxadiazol-3-yl]phenyl]acetamide] | ≥ 80 | – | – | ≥ 80 | – | 135 to 138
9 | COC(=O)C1(N(O)C(=O)c2ccc(-c3noc(C(F)(F)F)n3)cc2F)CCN(OC)CC1 [Compound 1.5, methyl 4-[[2-fluoro-4-[5-(trifluoromethyl)-1,2,4-oxadiazol-3-yl]benzoyl]-hydroxy-amino]-1-methoxy-piperidine-4-carboxylate] | ≥ 80 | ≥ 80 | ≥ 80 | ≥ 80 | ≥ 80 | –
10 | CON(CC=C(Cl)Cl)C(=O)c1ccc(-c2noc(C(F)(F)F)n2)cc1 [Compound 2.7, N-(3,3-dichloroallyl)-N-methoxy-4-[5-(trifluoromethyl)-1,2,4-oxadiazol-3-yl]benzamide] | ≥ 80 | ≥ 80 | ≥ 80 | ≥ 80 | ≥ 80 | –
11 | C#CCN(OC)C(=O)c1ccc(-c2noc(C(F)(F)F)n2)cc1 [Compound 2.6, N-methoxy-N-prop-2-ynyl-4-[5-(trifluoromethyl)-1,2,4-oxadiazol-3-yl]benzamide] | ≥ 80 | ≥ 80 | ≥ 80 | ≥ 80 | ≥ 80 | –
12 | CON(Cc1ccccc1)C(=O)c1ccc(-c2noc(C(F)(F)F)n2)cc1F [Compound 1.6, N-benzyl-2-fluoro-N-methoxy-4-[5-(trifluoromethyl)-1,2,4-oxadiazol-3-yl]benzamide] | ≥ 80 | ≥ 80 | ≥ 80 | ≥ 80 | ≥ 80 | –
13 | CON(CC(=O)NC(C)(C)C)C(=O)c1ccc(-c2noc(C(F)(F)F)n2)cc1 [Compound 2.2, N-[2-(tert-butylamino)-2-oxo-ethyl]-N-methoxy-4-[5-(trifluoromethyl)-1,2,4-oxadiazol-3-yl]benzamide] | ≥ 80 | ≥ 80 | ≥ 80 | ≥ 80 | ≥ 80 | –
14 | CON(CC1CC1)C(=O)c1ccc(-c2noc(C(F)(F)F)n2)cc1F [Compound 1.8, N-(cyclopropylmethyl)-2-fluoro-N-methoxy-4-[5-(trifluoromethyl)-1,2,4-oxadiazol-3-yl]benzamide] | ≥ 80 | ≥ 80 | ≥ 80 | ≥ 80 | ≥ 80 | –
